Calls of active or inactive are those of the source. How the calls were made is not given here.
test system: Clostridioides difficile clinical isolate growth, OD600, 24 h; test: inhibitors of Clostridioides difficile proliferation – 4-point retest, confirmation (AID 1224921)

Row | Structure (SMILES) | AC50
1 | O=C(NCC[C@H]1CC[C@@H](NC(=O)C2CC2)[C@H](CO)O1)Nc1ccc(C(F)(F)F)cc1 | 9.05 µM
2 | C[C@@H]1CN([C@H](C)CO)S(=O)(=O)c2ccc(C#CCC3CCCC3)cc2O[C@@H]1CN(C)C(=O)CN(C)C | 17.6 µM
3 | Cc1noc(C)c1S(=O)(=O)Nc1ccc2c(c1)C(=O)N([C@@H](C)CO)C[C@H](C)[C@@H](CN(C)Cc1ccc3c(c1)OCO3)OCCCC[C@@H](C)O2 | 11.7 µM
4 | C[C@H]1CCCCO[C@@H](CN(C)CC2CCCCC2)[C@@H](C)CN([C@@H](C)CO)C(=O)c2cc(NC(=O)Nc3ccc(C(F)(F)F)cc3)ccc2O1 | 17.3 µM
5 | CCNC(=O)C[C@@H]1CC[C@H]2[C@@H](COC[C@H](O)CN2C(=O)Nc2ccc(Cl)c(Cl)c2)O1 | 7.98 µM
6 | CCCN(C)C[C@@H]1OCCCC[C@H](C)Oc2ccc(NC(=O)Nc3ccc(C(F)(F)F)cc3)cc2C(=O)N([C@H](C)CO)C[C@@H]1C | 4.61 µM
7 | O=C(NCC[C@H]1CC[C@H](NC(=O)c2cccnc2)[C@@H](CO)O1)Nc1ccc(C(F)(F)F)cc1 | 1.79 µM
8 | O=C1C[C@@](C(=O)NCCN2CCOCC2)(c2ccc([N+](=O)[O-])cc2)[C@@H](c2ccc(CO)cc2I)N1CC12CC3CC(CC(C3)C1)C2 | 18.8 µM
9 | C[C@@H]1CCCCO[C@@H](CN(C)CC2CCCCC2)[C@H](C)CN([C@@H](C)CO)C(=O)c2cc(NC(=O)Nc3ccc(C(F)(F)F)cc3)ccc2O1 | 12.6 µM
10 | O=C(C[C@H]1CC[C@H]2[C@@H](COC[C@H](O)CN2C(=O)Nc2ccc(Cl)c(Cl)c2)O1)NCc1ccc(Cl)cc1 | 1.07 µM
11 | COc1ccccc1S(=O)(=O)N(C)C[C@@H]1OCc2ccccc2-c2c(n(C)c3ccccc23)C(=O)N([C@H](C)CO)C[C@@H]1C | > 60 µM (inactive)
12 | C[C@H](CO)N1C[C@H](C)[C@H](CN(C)C(=O)Nc2ccc(F)cc2)Oc2c(NC(=O)Nc3ccc(C(F)(F)F)cc3)cccc2C1=O | 33.7 µM
13 | CCNC(=O)C[C@H]1CC[C@@H]2[C@H](COC[C@H](O)CN2C(=O)Nc2ccc(Cl)c(Cl)c2)O1 | 3.02 µM
14 | CCNC(=O)C[C@@H]1CC[C@@H]2[C@H](COC[C@@H](O)CN2C(=O)Nc2ccc(C(F)(F)F)cc2)O1 | 13.6 µM
15 | C[C@H]1CN([C@@H](C)CO)C(=O)c2cccc(NC(=O)Nc3ccccc3)c2O[C@H]1CN(C)C(=O)Nc1ccc(C(F)(F)F)cc1 | 28.2 µM
16 | C[C@@H]1CCCCO[C@H](CN(C)C(=O)Nc2ccc(C(F)(F)F)cc2)[C@H](C)CN([C@@H](C)CO)C(=O)c2cc(N(C)C)ccc2O1 | > 60 µM (inactive)
17 | O=C(NCC[C@@H]1CC[C@H](NC(=O)c2cccnc2)[C@@H](CO)O1)Nc1ccc(C(F)(F)F)cc1 | 17 µM
18 | O=C(NCC[C@@H]1CC[C@@H](NC(=O)C2CC2)[C@@H](CO)O1)Nc1ccc(C(F)(F)F)cc1 | 10.7 µM
